Results as given in US20120149694A1, “Substituted piperidines” (BAYER PHARMA AKTIENGESELLSCHAFT, priority 2009, published 2012).

Molecular target: T1, human protease activated receptor 1 (PAR-1) (Homo sapiens, UniProt P25116)
T1 construct: the cell stably expresses the endogenous human PAR-1 receptor; endogenous in cells; host or cells: HEK293-derived recombinant cell line expressing mitochondrial aequorin
T1 sequence (P25116 22-425): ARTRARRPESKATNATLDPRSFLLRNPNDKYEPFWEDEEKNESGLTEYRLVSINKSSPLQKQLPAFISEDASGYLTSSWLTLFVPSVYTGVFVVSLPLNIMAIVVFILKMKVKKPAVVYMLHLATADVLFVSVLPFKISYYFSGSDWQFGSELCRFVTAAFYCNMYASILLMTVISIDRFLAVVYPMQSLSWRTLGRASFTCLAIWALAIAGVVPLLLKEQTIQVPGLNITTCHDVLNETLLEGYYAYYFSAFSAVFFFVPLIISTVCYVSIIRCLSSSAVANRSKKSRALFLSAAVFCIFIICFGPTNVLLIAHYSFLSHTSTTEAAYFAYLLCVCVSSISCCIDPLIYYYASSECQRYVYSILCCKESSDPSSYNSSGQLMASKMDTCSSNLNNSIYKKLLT
Assay: Cellular functional in vitro test (PAR-1 antagonism, aequorin luminescence calcium readout)
Assay type: cell-based
Conditions: recombinant HEK293-derived aequorin cell line with endogenous PAR-1; PAR-1 agonist added at its EC50, 5 min after test substance
From the text: A recombinant cell line is used to identify antagonists of the human protease activated receptor 1 (PAR-1) and to quantify the activity of the substances described herein. The cell is originally derived from a human embryonal kidney cell (HEK293; ATCC: American Type Culture Collection, Manassas, Va. 20108, USA). The test cell line constitutively expresses a modified form of the calcium-sensitive photoprotein aequorin which, after reconstitution with the cofactor coelenterazine, emits light when the free calcium concentration in the inner mitochondrial compartment is increased (Rizzuto R, Simpson A W, Brini M, Pozzan T.; Nature 1992, 358, 325-327). Additionally, the cell stably expresses the endogenous human PAR-1 receptor and the endogenous purinergic receptor P2Y2. The resulting PAR-1 test cell responds to stimulation of the endogenous PAR-1 or P2Y2 receptor with an intracellular release of calcium ions, which can be quantified through the resulting aequorin luminescence with a suitable luminometer (Milligan G, Marshall F, Rees S, Trends in Pharmacological Sciences 1996, 17, 235-237).
For the testing of the substance specificity, the effect thereof after activation of the endogenous PAR-1 receptor is compared with the effect after activation of the endogenous purinergic P2Y2 receptor which utilizes the same intracellular signal path.
Test procedure: The cells are plated out two days (48 h) before the test in culture medium (DMEM F12, supplemented with 10% FCS, 2 mM glutamine, 20 mM HEPES, 1.4 mM pyruvate, 0.1 mg/ml gentamycin, 0.15% Na bicarbonate; BioWhittaker Cat.# BE04-687Q; B-4800 Verviers, Belgium) in 384-well microtitre plates and kept in a cell incubator (96% atmospheric humidity, 5% v/v CO2, 37° C.). On the day of the test, the culture medium is replaced by a tyrode solution (in mM: 140 sodium chloride, 5 potassium chloride, 1 magnesium chloride, 2 calcium chloride, 20 glucose, 20 HEPES), which additionally contains the cofactor coelenterazine (25 μM) and glutathione (4 mM), and the microtitre plate is then incubated for a further 3-4 hours. The test substances are then pipetted onto the microtitre plate, and 5 minutes after the transfer of the test substances into the wells of the microtitre plate the plate is transferred into the luminometer, a PAR-1 agonist concentration which corresponds to EC50 is added and the resulting light signal is immediately measured in the luminometer. To distinguish an antagonist substance action from a toxic action, the endogenous purinergic receptor is immediately subsequently activated with agonist (ATP, final concentration 10 μM) and the resulting light signal is measured.

SMILES | IC50 [nM]
CC(C)(C)C(=O)NCC1CC(c2ccc(C(F)(F)F)cc2)CN(C(=O)N2CCOCC2)C1 (racemic) [Example 1, 2,2-Dimethyl-N-({1-(morpholin-4-ylcarbonyl)-5-[4-(trifluoromethyl)phenyl]piperidin-3-yl}methyl)propaneamide] | 177
O=C(N1CCOCC1)N1CC(CSc2cccc(F)c2)CC(c2ccc(C(F)(F)F)cc2)C1 (racemic) [Example 40, (3-{[(3-Fluorophenyl)sulphanyl]methyl}-5-[4-(trifluoromethyl)phenyl]piperidin-1-yl)(morpholin-4-yl)methanone] | 3
O=C(CC1CC(c2ccc(C(F)(F)F)cc2)CN(C(=O)N2CCOCC2)C1)Nc1ccccc1 (racemic) [Example 15, 2-{1-(Morpholin-4-ylcarbonyl)-5-[4-(trifluoromethyl)phenyl]piperidin-3-yl}-N-phenylacetamide] | 56

Next, values leading:

IC50 [nM] | SMILES
24 | O=C(N1CCOCC1)N1CC(CS(=O)(=O)C2CCCC2)CC(c2ccc(C(F)(F)F)cc2)C1 (racemic) [Example 48, {3-[(Cyclopentylsulphonyl)methyl]-5-[4-(trifluoromethyl)phenyl]piperidin-1-yl}(morpholin-4-yl)methanone]
8 | CS(=O)(=O)NCC1CC(c2ccc(C(F)(F)F)cc2)CN(C(=O)N2CCOCC2)C1 (single isomer, unassigned) [Example 6, N-({1-(Morpholin-4-ylcarbonyl)-5-[4-(trifluoromethyl)phenyl]piperidin-3-yl}methyl)methanesulphonamide]
